Results on nine molecules are retold here after patent publication US12589092B2, “Polycyclic compound acting as kinase inhibitor” (HANGZHOU INNOGATE PHARMA CO., LTD., priority 2020, dated 2026).

The nature of series [1]: Pharmacokinetic study in rats (intragastrical administration, plasma LC-MS/MS). The conditions noted are these: male, SD, rat, po, 3 mg/kg.
Method: Instruments: XEVO TQ-S LC/MS instrument produced by Waters. All measurement data is collected and processed by Masslynx V4.1 software, and the data is calculated and processed by Microsoft Excel. Using WinNonLin 8.0 software, the statistical moment method was used to calculate the pharmacokinetic parameters. Mainly include kinetic parameters Tmax, T1/2, Cmax, AUClast etc. Column: ACQUITY UPLC BEH C18 (2.1 mm×50 mm, 1.7 μm); column temperature 40° C.; mobile phase A is water (0.1% formic acid), mobile phase B is acetonitrile, flow rate is 0.350 ml/min, gradient elution is adopted, the elution gradient is 0.50 min: 10% B; 1.50 min: 10% B; 2.30 min: 95% B; 2.31 min: 10% B; 3.00 min: stop. Injection volume: 5 μL.
Animals: 3 male SD rats with a weight range of 200-220 g. After purchase, they will be kept in the laboratory of the Experimental Animal Center for 2 days and then used. They will be fasted for 12 hours predose and 4 hours after dosing. Drinking water is free during the test. After the rats were gavage, blood samples were taken according to the established time point.
Solvent: 0.5% Methylcellulose (aqueous solution containing 0.4% Tween 80 and 1% ethanol). Preparation of the solution for intragastrical administration: accurately weigh the compound, add it to the solvent, and use ultrasound at room temperature for 5 minutes to completely dissolve the drug, and prepare a 0.3 mg/ml medicinal solution.
A single administration was also used to study the pharmacokinetics of the drug sample in rats.
After intragastrical administration, blood was taken from the orbit at 0.25, 0.5, 1, 2, 4, 9, 12 and 24 hours, and placed in a plastic centrifuge tube pretreated with sodium heparin. After centrifugation, the supernatant plasma was used for LC-MS/MS analysis.
Accurately weigh the compounds to prepare different concentrations, perform quantitative analysis on mass spectrometry to establish a standard curve, and then test the concentration of the above-mentioned compound in the plasma to obtain the compound concentration at different time points. All measurement data are collected and processed by relevant software, and the statistical moment method is used to calculate the pharmacokinetic parameters (mainly including kinetic parameters Tmax, T1/2, Cmax, AUClast etc).
In the next series the target is CDK9/CycT1 (Homo sapiens, UniProt P50750). Briefly: CDK9 kinase activity inhibition assay (ADP-Glo). The conditions noted are these: read-out: CDK9 kinase inhibitory activity (IC50). In kind it is biochemical. How it is done:
(§1) 3) CDK5, CDK9 and CDK16 Kinase Activity Inhibition Assay
(§2) CDK5/p35NCK, CDK9/CycT1 and CDK16/CycY protein kinase activities were determined using the ADP-Glo Kinase Assay. Dilute the positive compound and the test compound (10 mM stock solution) 25-fold with 100% DMSO, make a 4-fold serial dilution in a 96-well dilution plate, and add 1 μL of the compound to 49 μL of kinase reaction buffer (1 mM Tris, 20 mM MgCl2, 0.10% BSA and 0.5 mM DTT) on a microplate shaker for 20 min. Transfer 2 μL of 2× kinase to the 384-well reaction plate, add 1 μL of the test compound to the 384-well reaction plate, centrifuge at 1000 rpm/min for 1 min, and incubate at 25° C. for 10 min. Transfer 1 μL of the 4× substrate mix to the 384-well reaction plate, centrifuge at 1000 rpm/min for 1 min, and incubate at 25° C. for 60 min. Transfer 4 μL of ADP-Glo to the 384-well reaction plate to centrifuge at 1000 rpm/min for 1 min, and incubate at 25° C. for 40 min. Transfer 8 μL of detection solution to the 384-well reaction plate to centrifuge at 1000 rpm/min for 1 min, and incubate at 25° C. for 40 min. The RLU (Relative luminescence unit) signal was read using a Biotek multifunctional plate reader. Signal intensity is used to characterize the degree of kinase activity. Compound inhibition rate data: % inhibition rate=[1−(compound mean RLU−positive control mean RLU)/(negative control mean RLU−positive control mean RLU)]*100. Taking the log value of the concentration as the X axis and the percentage inhibition rate as the Y axis, the log(inhibitor) vs. response-Variable slope of the analysis software GraphPad Prism 5 was used to fit the dose-response curve to obtain the IC50 value of each compound on the enzyme activity.

The target in another series is CDK16/CycY (Homo sapiens, UniProt Q00536). Description: CDK16 kinase activity inhibition assay (ADP-Glo). It is filed as biochemical. The conditions noted are these: read-out: CDK16 kinase inhibitory activity (IC50). How it is done:
as §1, §2

A further series concerns the target CDK6/cycD3 (Homo sapiens, UniProt Q00534). Briefly: CDK6 kinase activity inhibition assay (caliper mobility shift). In kind it is biochemical. As to conditions: CDK6/cycD3 15 nM, ATP 800 μM; read-out: CDK6 kinase inhibitory activity (IC50). As to the method:
(§3) 1) CDK2, CDK4 and CDK6 Kinase Activity Inhibition Assay
(§4) In vitro enzymatic activity of the CDK isoforms CDK2/CycA2, CDK4/CycD3 and CDK6/cycD3 were measured using caliper mobility shift assay. Dissolve the compounds in DMSO and dilute them with corresponding kinase buffer (CDK2/CycA2 and CDK6/CycD3 were assayed with buffer conditions of 50 mM HEPES (pH 7.5), 10 mM MgCl2, 0.0015% Brij-35 and 2 mM dithiothreitol; CDK4/CycD3 was assayed with buffer condition of 20 mM HEPES (pH 7.5), 10 mM MgCl2, 0.01% Triton X-100 and 2 mM dithiothreitol). Add 5 μl of compound (10% DMSO) with 5 times the final concentration of the reaction to a 384-well plate. […] Collect conversion data on Caliper EZ Reader II (Caliper Life Sciences). Convert the conversion rate into inhibition rate data (% inhibition rate=(max−conversion rate)/(max−min)*100). […] Draw a curve with the concentration and inhibition rate of the compound as abscissa and ordinate, and use XLFit excel add-in version 4.3.1 software to fit the curve and calculate IC50.

For the next series, the target named is CDK4/CycD3 (Homo sapiens, UniProt P11802). Briefly: CDK4 kinase activity inhibition assay (caliper mobility shift). In kind it is biochemical. The conditions noted are these: CDK4/CycD3 10 nM, ATP 221 μM; read-out: CDK4 kinase inhibitory activity (IC50). How it is done: as §3, §4
For a further series, the target named is CDK5/p35NCK (Homo sapiens, UniProt Q00535). Description: CDK5 kinase activity inhibition assay (ADP-Glo). In kind it is biochemical. As to conditions: read-out: CDK5 kinase inhibitory activity (IC50). How it is done:
as §1, §2

Another series has as its target CDK2/CycA2 (Homo sapiens, UniProt P24941). Description: CDK2 kinase activity inhibition assay (caliper mobility shift). In kind it is biochemical. The conditions noted are these: CDK2/CycA2 12 nM, ATP 39 μM; read-out: CDK2 kinase inhibitory activity (IC50). As to the method: as §3, §4
The target in the next series is TRKA (Homo sapiens, UniProt P04629). Briefly: TRKA kinase activity inhibition assay (caliper mobility shift). It is filed as biochemical. How it is done: 2) TRKA Kinase Activity Inhibition Assay
TRKA protein kinase activity was measured by caliper mobility shift assay. Compounds were dissolved in DMSO to make up 10 mM stock solutions. Prepare 1× kinase reaction buffer to serially dilute compounds. 250 nL 100× final concentration of the test compounds were transferred to destination plate 3573 by dispenser Echo 550. Prepare a 2.5× final concentration of kinase solution with 1× kinase buffer. Add 10 μL of 2.5× final kinase solution to compound wells and positive control wells; add 10 μL of 1× kinase buffer to negative control wells. Centrifuge at 1000 rpm for 30 s, shake and mix the reaction plate and incubate at room temperature for 10 min. Prepare a mixture of ATP and kinase substrate solution at 5/3× final concentration with 1× kinase buffer. The reaction was initiated by adding 15 μL of the mixed solution. Centrifuge the 384-well plate at 1000 rpm for 30 s, shake and mix well, and incubate at room temperature for the corresponding time. Add 30 μL of stop solution to stop the kinase reaction, centrifuge at 1000 rpm for 30 s, mix by shaking, and read the conversion rate data with Caliper EZ Reader. Convert conversion to inhibition data (% inhibition=(max DMSO well conversion−sample well conversion)/(max DMSO well conversion−min negative control conversion)*100). Wherein max refers to the conversion rate of the DMSO control, and min refers to the conversion rate of the non-enzymatic control. Draw a curve with the concentration and inhibition rate of the compound as abscissa and ordinate, and use XLFit excel add-in version 4.3.1 software to fit the curve and calculate IC50.

[2] abbreviates: read-out: TRKA kinase inhibitory activity (IC50).

Where two headings read alike, the source gives them in different places.

CDK16/CycY, sequence (Q00536 whole entry): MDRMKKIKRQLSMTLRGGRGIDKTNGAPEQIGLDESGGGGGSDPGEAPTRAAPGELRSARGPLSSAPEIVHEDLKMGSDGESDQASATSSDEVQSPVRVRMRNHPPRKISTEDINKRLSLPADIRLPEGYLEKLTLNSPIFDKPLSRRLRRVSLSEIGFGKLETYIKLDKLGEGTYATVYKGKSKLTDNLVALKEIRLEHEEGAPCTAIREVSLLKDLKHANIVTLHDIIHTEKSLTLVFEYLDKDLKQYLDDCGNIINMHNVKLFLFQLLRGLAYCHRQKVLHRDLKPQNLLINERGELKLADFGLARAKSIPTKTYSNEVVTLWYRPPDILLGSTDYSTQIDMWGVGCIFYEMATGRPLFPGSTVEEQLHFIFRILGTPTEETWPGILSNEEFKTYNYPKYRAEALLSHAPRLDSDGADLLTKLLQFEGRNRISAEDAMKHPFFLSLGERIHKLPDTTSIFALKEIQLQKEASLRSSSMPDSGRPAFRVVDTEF
CDK16/CycY, sequence (Q8ND76 whole entry partner): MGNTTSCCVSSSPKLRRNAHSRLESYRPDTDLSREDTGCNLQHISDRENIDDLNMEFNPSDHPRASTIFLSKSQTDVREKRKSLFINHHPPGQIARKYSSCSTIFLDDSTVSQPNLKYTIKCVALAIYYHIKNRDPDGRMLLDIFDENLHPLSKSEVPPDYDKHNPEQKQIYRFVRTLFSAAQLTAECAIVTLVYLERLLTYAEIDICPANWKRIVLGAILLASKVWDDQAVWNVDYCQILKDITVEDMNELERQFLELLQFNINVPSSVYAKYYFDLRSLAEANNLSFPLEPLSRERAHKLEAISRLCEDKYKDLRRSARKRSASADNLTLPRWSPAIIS
CDK4/CycD3, sequence (P11802 whole entry): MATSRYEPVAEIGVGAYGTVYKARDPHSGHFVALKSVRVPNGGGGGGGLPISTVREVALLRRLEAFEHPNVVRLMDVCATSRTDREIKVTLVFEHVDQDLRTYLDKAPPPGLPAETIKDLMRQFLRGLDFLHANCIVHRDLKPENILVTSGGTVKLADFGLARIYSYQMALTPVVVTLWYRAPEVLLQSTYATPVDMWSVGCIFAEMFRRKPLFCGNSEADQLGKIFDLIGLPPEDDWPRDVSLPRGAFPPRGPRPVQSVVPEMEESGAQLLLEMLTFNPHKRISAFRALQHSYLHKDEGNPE
CDK4/CycD3, sequence (P30281 whole entry partner): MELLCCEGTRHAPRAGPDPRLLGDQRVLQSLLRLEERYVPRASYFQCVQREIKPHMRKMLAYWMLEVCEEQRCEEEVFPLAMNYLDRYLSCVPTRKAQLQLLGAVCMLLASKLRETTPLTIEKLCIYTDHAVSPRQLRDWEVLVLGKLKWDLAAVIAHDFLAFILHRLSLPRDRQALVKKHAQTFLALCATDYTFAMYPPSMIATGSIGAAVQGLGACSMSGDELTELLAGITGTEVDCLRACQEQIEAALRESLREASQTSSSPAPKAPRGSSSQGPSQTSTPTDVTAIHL
CDK5/p35NCK, sequence (Q00535 whole entry): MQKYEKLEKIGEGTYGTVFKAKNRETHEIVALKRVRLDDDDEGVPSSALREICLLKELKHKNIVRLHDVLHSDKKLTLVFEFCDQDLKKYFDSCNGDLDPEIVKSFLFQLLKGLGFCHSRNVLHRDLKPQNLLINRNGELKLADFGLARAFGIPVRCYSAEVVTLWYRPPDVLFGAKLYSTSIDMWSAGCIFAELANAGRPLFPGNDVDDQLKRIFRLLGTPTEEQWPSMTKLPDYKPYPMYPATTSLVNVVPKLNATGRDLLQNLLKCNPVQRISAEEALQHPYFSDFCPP
CDK5/p35NCK, sequence (Q15078 whole entry partner): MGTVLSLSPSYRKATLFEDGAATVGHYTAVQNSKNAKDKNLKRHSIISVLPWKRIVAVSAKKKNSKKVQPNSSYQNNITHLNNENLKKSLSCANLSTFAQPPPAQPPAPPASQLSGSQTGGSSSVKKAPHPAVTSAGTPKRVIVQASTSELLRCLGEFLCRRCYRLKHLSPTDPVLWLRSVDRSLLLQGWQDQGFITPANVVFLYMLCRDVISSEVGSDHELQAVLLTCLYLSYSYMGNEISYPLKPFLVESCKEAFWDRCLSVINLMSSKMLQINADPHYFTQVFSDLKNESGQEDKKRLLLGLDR
TRKA, sequence (P04629 33-796): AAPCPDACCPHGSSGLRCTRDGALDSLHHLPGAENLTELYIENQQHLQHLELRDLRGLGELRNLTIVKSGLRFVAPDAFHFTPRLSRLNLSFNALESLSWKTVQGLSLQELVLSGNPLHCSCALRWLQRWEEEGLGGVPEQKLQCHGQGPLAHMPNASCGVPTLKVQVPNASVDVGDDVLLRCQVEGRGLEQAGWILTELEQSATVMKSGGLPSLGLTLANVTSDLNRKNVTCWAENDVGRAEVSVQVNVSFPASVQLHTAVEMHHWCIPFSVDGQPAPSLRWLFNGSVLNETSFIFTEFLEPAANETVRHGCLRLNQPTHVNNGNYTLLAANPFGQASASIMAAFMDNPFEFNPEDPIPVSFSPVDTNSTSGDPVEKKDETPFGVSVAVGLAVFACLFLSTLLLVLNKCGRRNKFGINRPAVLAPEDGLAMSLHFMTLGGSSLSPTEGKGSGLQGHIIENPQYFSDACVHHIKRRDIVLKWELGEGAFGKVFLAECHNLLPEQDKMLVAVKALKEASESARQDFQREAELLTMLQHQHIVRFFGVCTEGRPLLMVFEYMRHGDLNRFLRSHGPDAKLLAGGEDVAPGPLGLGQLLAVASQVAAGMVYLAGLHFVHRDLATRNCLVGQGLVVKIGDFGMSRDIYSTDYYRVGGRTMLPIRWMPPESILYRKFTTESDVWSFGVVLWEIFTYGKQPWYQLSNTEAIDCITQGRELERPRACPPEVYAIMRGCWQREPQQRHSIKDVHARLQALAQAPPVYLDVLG
CDK9/CycT1, sequence (P50750 whole entry): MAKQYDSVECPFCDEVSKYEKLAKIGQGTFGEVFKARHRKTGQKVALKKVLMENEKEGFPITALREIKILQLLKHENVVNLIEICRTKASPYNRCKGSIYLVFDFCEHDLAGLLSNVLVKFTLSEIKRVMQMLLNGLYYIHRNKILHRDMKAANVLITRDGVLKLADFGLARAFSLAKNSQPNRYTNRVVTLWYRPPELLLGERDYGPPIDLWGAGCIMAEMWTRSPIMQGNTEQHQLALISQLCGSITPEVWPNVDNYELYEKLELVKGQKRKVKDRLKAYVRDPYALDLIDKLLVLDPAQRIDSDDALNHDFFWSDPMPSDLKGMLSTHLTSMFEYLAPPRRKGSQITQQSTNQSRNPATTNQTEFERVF
CDK9/CycT1, sequence (O60563 whole entry partner): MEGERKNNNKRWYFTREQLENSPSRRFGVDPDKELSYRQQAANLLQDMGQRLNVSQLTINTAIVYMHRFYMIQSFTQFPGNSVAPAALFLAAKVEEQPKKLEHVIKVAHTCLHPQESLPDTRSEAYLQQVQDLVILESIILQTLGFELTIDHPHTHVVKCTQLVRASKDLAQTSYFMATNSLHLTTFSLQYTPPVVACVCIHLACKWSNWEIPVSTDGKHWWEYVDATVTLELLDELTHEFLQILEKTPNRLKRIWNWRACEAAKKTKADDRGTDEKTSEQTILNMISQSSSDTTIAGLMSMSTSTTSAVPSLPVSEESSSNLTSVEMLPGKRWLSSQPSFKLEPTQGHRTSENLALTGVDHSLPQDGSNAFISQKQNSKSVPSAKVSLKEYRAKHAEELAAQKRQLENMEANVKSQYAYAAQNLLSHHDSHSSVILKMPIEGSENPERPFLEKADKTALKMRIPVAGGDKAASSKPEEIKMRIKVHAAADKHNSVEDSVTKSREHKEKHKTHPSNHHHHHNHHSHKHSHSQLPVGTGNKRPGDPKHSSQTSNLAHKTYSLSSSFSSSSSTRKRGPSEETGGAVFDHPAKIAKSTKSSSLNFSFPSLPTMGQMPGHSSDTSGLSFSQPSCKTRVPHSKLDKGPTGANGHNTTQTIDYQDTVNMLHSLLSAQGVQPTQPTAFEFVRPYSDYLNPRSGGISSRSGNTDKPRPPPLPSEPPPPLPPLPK
CDK6/cycD3, sequence (Q00534 whole entry): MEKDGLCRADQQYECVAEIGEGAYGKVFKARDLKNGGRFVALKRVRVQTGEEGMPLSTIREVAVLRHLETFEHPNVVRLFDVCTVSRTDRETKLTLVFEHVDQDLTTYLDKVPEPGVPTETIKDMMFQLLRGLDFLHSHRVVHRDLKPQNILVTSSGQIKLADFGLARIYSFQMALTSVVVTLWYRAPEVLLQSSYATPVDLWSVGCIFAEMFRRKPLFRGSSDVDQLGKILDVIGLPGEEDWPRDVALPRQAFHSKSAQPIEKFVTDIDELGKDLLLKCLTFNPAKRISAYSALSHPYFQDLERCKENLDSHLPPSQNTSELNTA
CDK6/cycD3, sequence (P30281 whole entry partner): as the sequence (P30281 whole entry partner) above

Molecule `CC(=O)c1c(C)c2cnc(Nc3ccc4c(c3)OC[C@H]3CN(C5CCOCC5)CCN43)nc2n(C2CCCC2)c1=O` [Compound 1R] registered an AUC(0-t) in series [1] of 274 ng·h/mL. Further, the peak level in series [1] (Cmax) was 43.4 ng/mL. The Tmax in series [1] was determined as 2 h. The molecule also showed a half-life in series [1] of 2.96 h. For the same molecule, the IC50 is < 50 nM on CDK9/CycT1; < 100 nM on CDK16/CycY; < 20 nM on CDK6/cycD3; < 10 nM at CDK4/CycD3; < 100 nM on CDK5/p35NCK; < 100 nM at CDK2/CycA2. Moreover, on TRKA (setting [2]), the IC50 is < 10 nM.
Turning to `CC(=O)c1c(C)c2cnc(Nc3ccc4c(c3)OC[C@H]3CN(C5CCN(C)CC5)CCN43)nc2n(C2CCCC2)c1=O` [Compound 2R], the IC50 is < 10 nM on CDK6/cycD3, < 10 nM on CDK4/CycD3, < 100 nM on CDK2/CycA2 and < 10 nM on TRKA.
In series [1], `CC(=O)c1c(C)c2cnc(Nc3ccc4c(c3)OC[C@@H]3CN(C5CCNCC5)CCN43)nc2n(C2CCCC2)c1=O` [Compound 3S] returned an AUC(0-t) of 1230 ng·h/mL. In series [1], this molecule gave a peak concentration (Cmax) of 85.7 ng/mL. Moreover, in series [1], the Tmax is 5.33 h. The same molecule gave a half-life in series [1] of 5.68 h. Further, the half-inhibitory concentration (IC50) at CDK9/CycT1 is < 20 nM; at CDK16/CycY it was < 50 nM; on CDK6/cycD3, < 10 nM; at CDK4/CycD3 it was < 10 nM; on CDK5/p35NCK, < 100 nM; at CDK2/CycA2, < 100 nM. Besides, the IC50 on TRKA (setting [2]) is < 10 nM.
For the molecule `CCN1CCC(N2CCN3c4ccc(Nc5ncc6c(C)c(C(C)=O)c(=O)n(C7CCCC7)c6n5)cc4OC[C@@H]3C2)CC1` [Compound 4S], in series [1], the AUC(0-t) was found to be 3770 ng·h/mL. In series [1], this molecule showed a Cmax of 250 ng/mL. Besides, in series [1], the Tmax amounted to 12 h. The molecule also had a half-life in series [1] of 10.7 h. The IC50 at CDK9/CycT1 is < 20 nM; at CDK16/CycY, < 100 nM; on CDK6/cycD3 it was < 10 nM; on CDK4/CycD3 it was < 10 nM; at CDK5/p35NCK, < 100 nM; on CDK2/CycA2, < 100 nM. Besides, the IC50 at TRKA (setting [2]) is < 10 nM.
Molecule `CC(=O)c1c(C)c2cnc(Nc3ccc4c(c3)OC[C@H]3CN(C5CCN(C(C)=O)CC5)CCN43)nc2n(C2CCCC2)c1=O` [Compound 5R] gave an AUC(0-t) in series [1] of 4350 ng·h/mL. This molecule registered a Cmax in series [1] of 438 ng/mL. Also, the Tmax in series [1] came out at 6.67 h. Besides, the half-life in series [1] was 2.91 h. In addition, the IC50 on CDK9/CycT1 is < 50 nM; at CDK16/CycY, < 200 nM; at CDK6/cycD3, < 20 nM; at CDK4/CycD3 it was < 10 nM; at CDK5/p35NCK it was < 200 nM; at CDK2/CycA2 it was < 100 nM. In addition, the IC50 at TRKA (setting [2]) was < 10 nM.
Consider `CC(=O)c1c(C)c2cnc(Nc3ccc4c(c3)OC[C@@H]3CN(C5CN(C(C)=O)C5)CCN43)nc2n(C2CCCC2)c1=O` [Compound 11S], for which, in series [1], the AUC(0-t) was found to be 3000 ng·h/mL, the Cmax is 424 ng/mL, the Tmax came to 2 h and the half-life is 2.61 h. Moreover, the IC50 on CDK6/cycD3 was < 20 nM. For the same molecule, the IC50 at CDK4/CycD3 is < 10 nM. Moreover, the IC50 on CDK2/CycA2 is < 100 nM. For the same molecule, on TRKA (setting [2]), the IC50 is < 10 nM.
`CC(=O)c1c(C)c2cnc(Nc3ccc4c(c3)OC[C@@H]3CN(C5COC5)CCN43)nc2n(C2CCCC2)c1=O` [Compound 13S]: in series [1], the AUC(0-t) worked out at 860 ng·h/mL, the Cmax came out at 169 ng/mL, the Tmax worked out at 1.83 h and the half-life is 1.95 h. Moreover, on CDK6/cycD3, the IC50 was < 20 nM. In addition, the IC50 at CDK4/CycD3 was < 10 nM. In addition, the IC50 at CDK2/CycA2 was < 100 nM.
With `CC(=O)c1c(C)c2cnc(Nc3ccc4c(c3)OC[C@@H]3CN(C5CN(S(C)(=O)=O)C5)CCN43)nc2n(C2CCCC2)c1=O` [Compound 14S], in series [1], the exposure AUC(0-t) came to 2030 ng·h/mL, the Cmax turned out to be 442 ng/mL, the Tmax was 1.33 h and the half-life was 1.84 h. Also, the IC50 at CDK6/cycD3 is < 20 nM. Further, the IC50 on CDK4/CycD3 is < 10 nM. Moreover, on CDK2/CycA2, the half-maximal inhibitory concentration (IC50) was < 100 nM.
With `CC(=O)c1c(C)c2cnc(Nc3ccc4c(c3)OC[C@@H]3CN(C5CC(F)(F)C5)CCN43)nc2n(C2CCCC2)c1=O` [Compound 15S], the figures for the IC50 on CDK4/CycD3, at CDK2/CycA2 and at TRKA (setting [2]) were < 50 nM, < 1000 nM and < 100 nM, respectively.
